Measured values reported in PubChem BioAssay (NCI).
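These data come from cells grown in 96-well plates and exposed to compound for 48 hours at five concentrations. At the GI50, growth is halved. TGI: concentration producing complete growth inhibition.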

Assays:
Assay in all cases: NCI tumour cell line growth inhibition, 48 h
NCI-H226 lung = system: NCI-H226 lung
IGROV1 ovarian = system: IGROV1 ovarian
HOP-62 NSCLC = system: HOP-62 NSCLC
NCI-H460 lung = system: NCI-H460 lung
MDA-MB-435 = system: MDA-MB-435
RPMI-8226 leukemia = system: RPMI-8226 leukemia
SK-MEL-5 melanoma = system: SK-MEL-5 melanoma
NCI-H522 lung = system: NCI-H522 lung
SR leukemia = system: SR leukemia
COLO 205 colon = system: COLO 205 colon
OVCAR-5 ovarian = system: OVCAR-5 ovarian
MCF7 breast = system: MCF7 breast
HL-60(TB) leukemia = system: HL-60(TB) leukemia
SF-268 CNS = system: SF-268 CNS
NCI-H23 lung = system: NCI-H23 lung
SN12C renal = system: SN12C renal
TK-10 renal = system: TK-10 renal
OVCAR-8 ovarian = system: OVCAR-8 ovarian
MALME-3M melanoma = system: MALME-3M melanoma
RXF 393 renal = system: RXF 393 renal
NCI/ADR-RES ovarian = system: NCI/ADR-RES ovarian
KM12 colon = system: KM12 colon
HCT-116 colon = system: HCT-116 colon
MOLT-4 leukemia = system: MOLT-4 leukemia
SW-620 colon = system: SW-620 colon
HCT-15 colon = system: HCT-15 colon
HT29 colon = system: HT29 colon
PC-3 prostate = system: PC-3 prostate
M14 melanoma = system: M14 melanoma
A549 NSCLC = system: A549 NSCLC
A498 renal = system: A498 renal
EKVX NSCLC = system: EKVX NSCLC
OVCAR-4 ovarian = system: OVCAR-4 ovarian
HCC-2998 colon = system: HCC-2998 colon
LOX IMVI melanoma = system: LOX IMVI melanoma
UACC-257 melanoma = system: UACC-257 melanoma
ACHN renal = system: ACHN renal
SK-MEL-28 melanoma = system: SK-MEL-28 melanoma
UACC-62 melanoma = system: UACC-62 melanoma
786-0 renal = system: 786-0 renal
MDA-MB-468 breast = system: MDA-MB-468 breast
HS 578T breast = system: HS 578T breast
SF-539 CNS = system: SF-539 CNS
DU-145 prostate = system: DU-145 prostate
U251 CNS = system: U251 CNS
OVCAR-3 ovarian = system: OVCAR-3 ovarian
SK-OV-3 ovarian = system: SK-OV-3 ovarian
SF-295 CNS = system: SF-295 CNS
HOP-92 NSCLC = system: HOP-92 NSCLC
CAKI-1 renal = system: CAKI-1 renal
CCRF-CEM leukemia = system: CCRF-CEM leukemia
SNB-19 CNS = system: SNB-19 CNS
T-47D breast = system: T-47D breast
K-562 leukemia = system: K-562 leukemia
BT-549 breast = system: BT-549 breast

SMILES: O=C(Nc1ccc(I)cc1)Nc1nc2ccc([N+](=O)[O-])cc2s1
- GI50 (NCI-H226 lung): 3.45 µM
- TGI (NCI-H226 lung): 13 µM
- GI50 (IGROV1 ovarian): 3.67 µM
- TGI (IGROV1 ovarian): 14 µM
- GI50 (HOP-62 NSCLC): 3.44 µM
- TGI (HOP-62 NSCLC): 12.5 µM
- GI50 (NCI-H460 lung): 3.21 µM
- TGI (NCI-H460 lung): 10.4 µM
- GI50 (MDA-MB-435): 3.47 µM
- TGI (MDA-MB-435): 12.5 µM
- GI50 (RPMI-8226 leukemia): 2.07 µM
- TGI (RPMI-8226 leukemia): 5.23 µM
- GI50 (SK-MEL-5 melanoma): 1.93 µM
- TGI (SK-MEL-5 melanoma): 3.9 µM
- GI50 (NCI-H522 lung): 2.29 µM
- TGI (NCI-H522 lung): 6.75 µM
- GI50 (SR leukemia): 2.24 µM
- TGI (SR leukemia): 5.84 µM
- GI50 (COLO 205 colon): 2.64 µM
- TGI (COLO 205 colon): 6.52 µM
- GI50 (OVCAR-5 ovarian): 4.11 µM
- TGI (OVCAR-5 ovarian): 15.9 µM
- GI50 (MCF7 breast): 2.59 µM
- TGI (MCF7 breast): 7.79 µM
- GI50 (HL-60(TB) leukemia): 2.41 µM
- TGI (HL-60(TB) leukemia): 6.05 µM
- GI50 (SF-268 CNS): 3.63 µM
- TGI (SF-268 CNS): 14.6 µM
- GI50 (NCI-H23 lung): 2.23 µM
- TGI (NCI-H23 lung): 5.85 µM
- GI50 (SN12C renal): 2.86 µM
- TGI (SN12C renal): 9.42 µM
- GI50 (TK-10 renal): 3.67 µM
- TGI (TK-10 renal): 11.7 µM
- GI50 (OVCAR-8 ovarian): 3.48 µM
- TGI (OVCAR-8 ovarian): 11.8 µM
- GI50 (MALME-3M melanoma): 2.41 µM
- TGI (MALME-3M melanoma): 6.89 µM
- GI50 (RXF 393 renal): 3.53 µM
- TGI (RXF 393 renal): 12.9 µM
- GI50 (NCI/ADR-RES ovarian): 2.92 µM
- TGI (NCI/ADR-RES ovarian): 9.27 µM
- GI50 (KM12 colon): 3.36 µM
- TGI (KM12 colon): 11.6 µM
- GI50 (HCT-116 colon): 2.66 µM
- TGI (HCT-116 colon): 11 µM
- GI50 (MOLT-4 leukemia): 2.57 µM
- TGI (MOLT-4 leukemia): 7.12 µM
- GI50 (SW-620 colon): 3.56 µM
- TGI (SW-620 colon): 13.1 µM
- GI50 (HCT-15 colon): 3.2 µM
- TGI (HCT-15 colon): 11.2 µM
- GI50 (HT29 colon): 3.32 µM
- TGI (HT29 colon): 13.4 µM
- GI50 (PC-3 prostate): 3.16 µM
- TGI (PC-3 prostate): 11.4 µM
- GI50 (M14 melanoma): 3.62 µM
- TGI (M14 melanoma): 13.2 µM
- GI50 (A549 NSCLC): 3.54 µM
- TGI (A549 NSCLC): 13.5 µM
- GI50 (A498 renal): 2.83 µM
- TGI (A498 renal): 9.14 µM
- GI50 (EKVX NSCLC): 3.08 µM
- TGI (EKVX NSCLC): 10.9 µM
- GI50 (OVCAR-4 ovarian): 3.69 µM
- TGI (OVCAR-4 ovarian): 14.5 µM
- GI50 (HCC-2998 colon): 3.59 µM
- TGI (HCC-2998 colon): 12.3 µM
- GI50 (LOX IMVI melanoma): 3.49 µM
- TGI (LOX IMVI melanoma): 11.7 µM
- GI50 (UACC-257 melanoma): 2.83 µM
- TGI (UACC-257 melanoma): 8.24 µM
- GI50 (ACHN renal): 3.25 µM
- TGI (ACHN renal): 10.4 µM
- GI50 (SK-MEL-28 melanoma): 3.19 µM
- TGI (SK-MEL-28 melanoma): 10.7 µM
- GI50 (UACC-62 melanoma): 2.99 µM
- TGI (UACC-62 melanoma): 10.3 µM
- GI50 (786-0 renal): 3.5 µM
- TGI (786-0 renal): 13.4 µM
- GI50 (MDA-MB-468 breast): 2.83 µM
- TGI (MDA-MB-468 breast): 7.4 µM
- GI50 (HS 578T breast): 3.01 µM
- TGI (HS 578T breast): 9.9 µM
- GI50 (SF-539 CNS): 3.01 µM
- TGI (SF-539 CNS): 9.39 µM
- GI50 (DU-145 prostate): 3.99 µM
- TGI (DU-145 prostate): 14 µM
- GI50 (U251 CNS): 3.23 µM
- TGI (U251 CNS): 10.7 µM
- GI50 (OVCAR-3 ovarian): 3.48 µM
- TGI (OVCAR-3 ovarian): 12.6 µM
- GI50 (SK-OV-3 ovarian): 2.93 µM
- TGI (SK-OV-3 ovarian): 9.16 µM
- GI50 (SF-295 CNS): 2.93 µM
- TGI (SF-295 CNS): 10.6 µM
- GI50 (HOP-92 NSCLC): 2.03 µM
- TGI (HOP-92 NSCLC): 6.28 µM
- GI50 (CAKI-1 renal): 3.32 µM
- TGI (CAKI-1 renal): 12.1 µM
- GI50 (CCRF-CEM leukemia): 3.4 µM
- TGI (CCRF-CEM leukemia): 10.8 µM
- GI50 (SNB-19 CNS): 3.44 µM
- TGI (SNB-19 CNS): 12.9 µM
- GI50 (T-47D breast): 2.8 µM
- TGI (T-47D breast): 8.71 µM
- GI50 (K-562 leukemia): 3.23 µM
- TGI (K-562 leukemia): 10.9 µM
- GI50 (BT-549 breast): 2.31 µM
- TGI (BT-549 breast): 7.29 µM
